Here are results for two molecules from US20250082573A1, “COMPOSITIONS AND METHODS FOR DELIVERY OF OCULAR THERAPEUTICS” (The Board of Trustees of the Leland Stanford Junior …, priority 2023, published 2025).

For series [1] the following is noted: following IV administration; cited from earlier work.
A short description of series [2]: VH mimic depot formation and model cargo release assay. Format: physicochemical. The following applies: cargo in PNP hydrogel vs PBS bolus, 50 μL into VH mimic; fluorescein 0.25 mg mL^−1, albumin-FITC 10 mg mL^−1. Here is the method:
This example describes PNP-2-10 hydrogel depot formation and model cargo release in a VH mimic. The PNP-2-10 hydrogel was prepared as described in Example 1. The present technology is directed to ITV administration of PNP hydrogels in the sensitive environment of the eye. To better visualize and understand how the PNP hydrogels would behave in the VH, depot formation and model cargo release were analyzed in a VH mimic composed of agar and hyaluronic acid (HA). […]
To prepare the VH mimic release assay, 50 μL of PNP hydrogel or PBS loaded with either 0.25 mg mL^−1 fluorescein or 10 mg mL^−1 albumin-FITC (MW˜66 kDa, mol FITC:mol albumin=14) was injected through a 30-gauge needle into a cuvette containing a VH mimic. […] Dye release was quantified using ImageJ software. Images were separated into red, blue, and green channels and the intensity in the green channel within a region inside the hydrogel depot or initial PBS injection site was measured for each time point, denoted Itn. […] The fraction of dye remaining in the gel depot at the final time point was determined by comparing the change in background intensity from times t0 to tplateau for PBS and gel samples:
The percent of dye retained in the gel or PBS injection site at each time point tn was determined by normalizing the intensity as
where tf is the final time point measured and C is a constant defined by […]

As to `CCNC(=O)CCC/C=C\C[C@@H]1[C@@H](/C=C/[C@@H](O)CCc2ccccc2)[C@H](O)C[C@@H]1O` [bimatoprost], in series [1], the elimination half-life was 45 min.
Take “albumin-FITC: a model protein, MW˜66 kDa, mol FITC:mol albumin=14”: the “increase of effective half-life of retention compared to the control PBS bolus” value in series [2] was “over 3.7 fold”.
